Results from patent US8901314B2, “Substituted pyrazoles as N-type calcium channel blockers” (Janssen Pharmaceutica NV, priority 2012, dated 2014).

Assays:
[1] = test system: Cav2.2 (N-type calcium channel; α1B, α2δ and β3 subunits stably expressed in HEK293 cells); assay: Automated electrophysiology assay (QPatch-HT patch clamp); format: cell-based
Description: The Cav2.2 (α1B) subunit (GenBank accession no. AAO53230; supplied by Lipscombe's laboratory at Brown University) was subcloned into pcDNA3.1, whereas the α2δ (M86621) and β3 (M88751) subunits were subcloned into pBudCE4.1 vectors. Stable cell lines expressing all three subunits were generated according to the following procedure: 1) HEK293 cells were transfected with α2δ−1/β3 expression constructs resulting in a stable cell line expressing α2δ−1 and β3 subunits that were selected under 200 μg/mL of Zeocin; 2) a stable cell line expressing α2δ−1/β3 subunits in high quantity as evidenced in its Western blots was isolated from the colony and purified; 3) this cell line was further transfected with Cav2.2 expression constructs, from which cells were subsequently selected under 400 μg/mL G418 and 200 μg/mL Zeocin; 4) these cells were clonally isolated, expanded and screened by Western blot analysis for expressing all three subunits
Cultures of cells stably expressing Cav2.2 were maintained at 37° C. in low glucose-containing Dulbecco's Modified Eagle medium (low glucose) under a 5% CO2 atmosphere. The medium was supplemented with 10% fetal bovine serum, 2 mM L-glutamine, 100 IU/mL penicillin, […] streptomycin, 400 μg/mL G418 and 200 μg/mL Zeocin.
High-throughput automated patch clamp system experiments were carried out using instruments (QPatch-HT) available from Sophion Biosciences, Inc. North Brunswick, N.J. Cells were grown in T175 flasks to 50%-90% confluence were enzymatically treated with Deatchin (Genlantis, San Diego, Calif., U.S.A.), centrifuged, rinsed and resuspended in 293 SFM II media (Life Technologies, Grand Island, N.Y., U.S.A.) supplemented with 25 mM HEPES (Sigma-Aldrich, St. Louis, Mo., U.S.A.) to a concentration of 2−3×10^6 cells/mL. Cells were added to automated cell preparation station on the QPatch-HT (Sophion Biosciences, North Brunswick, N.J., U.S.A.) and following a 10- to 30-min recovery period with gentle stirring, the assay protocol was initiated. During the automated cell preparation, cells were collected, centrifuged and resuspended in an extracellular (EC) solution containing 132 mM NaCl, 1.8 mM CaCl2, 5.4 mM KCl, 0.8 mM MgCl2, 10 mM glucose, and 10 mM HEPES (pH=7.4), adjusted with sucrose to 315 m0sm. The QPlate was primed with an intracellular solution containing 135 CsCl, 10 mM EGTA, 4 MgATP, 0.3 NaGTP, and 20 mM HEPES (pH=7.2), adjusted to approximately 290 m0sm with deionized water and the EC solution. Cells were added to the prepared QPlate wells by robotic pipettes of the QPatch-HT.
For cells determined to be in stable whole-cell patch clamp, the EC solution was replaced with a barium (Ba)/triethylammonium (TEA) solution containing 140 mM TEA-Cl, 10 mM BaCl2, 0.8 mM MgCl2, 10 mM glucose, and 10 mM HEPES (pH=7.4). High (40 mM) BaCl2 concentrations were made with adjustments of TEA-Cl (90 mM) to maintain the osmolarity. From a resting potential of −80 mV, a train of depolarizing pulses (15 pulses at 5 Hz, +20 mV) was delivered to the cell once every 30 sec for eight trains (4 min total), and the resulting currents were measured during a control period (no compound). This protocol was repeated for each subsequent addition of control buffer with or without compound (three periods total, each with four trains). The current generated in the 1st and 15th pulses of the last train of each period in the presence of each drug concentration was normalized to the current generated during the control period at the respective pulses (representing low- and high frequency stimulation, respectively). Data from both the second and third drug application period were analyzed for each cell. A final addition of Ba/TEA solution containing 60-100 uM CdCl2 was made to block all N-type current and “zero” the currents for each cell. A buffer/compound additions were made using a “spitting” feature of the QPatch-HT, which added three repretitions of 5 μL solution at the beginning of each recording period.

[2] = target: α1B (Cav2.2), β3 and α2δ subunits of the N-type calcium channel (stable HEK cell line) (Rattus norvegicus, UniProt Q02294); assay: Calcium-dye indicator assay (FDSS, KCl depolarization); format: cell-based; details: calcium mobilization response to 50 mM KCl; six-point concentration-response
Description: A stable cell line (HEK parent) co-expressing the α1B (Cav2.2), β3 and α2δ subunits of the N-type calcium channel subunits was used. These cells were routinely grown as monolayers in low glucose-containing Dulbecco's Modified Eagle Medium supplemented with 10% FBS, 2 mM L-glutamine, 100 I.U./mL penicillin, 100 μg/mL streptomycin, 400 μg/mL G418 and 200 μg/mL Zeocin (split ratio=1:5). Cells were maintained in 5% CO2 at 37° C. Compounds of Formula (I) were prepared as 10 mM stocks in DMSO from neat compound, if available. Otherwise, the 5 or 10 mM DMSO stock solutions provided in-house were used.
Calcium mobilization responses to KCl depolarization were evaluated by measuring the intensity of calcium-mediated fluorescent signal in the presence of BD Calcium Assay Dye (BD Biosciences, Franklin Lakes, N.J., U.S.A.), utilizing a Functional Drug Screening System (FDSS) by Hamamatsu Corporation (Bridgewater, N.J., U.S.A.).
Twenty-four hours prior to assay, cells were seeded in clear-base poly-D-lysine coated 384-well plates (BD Biosciences) at a density of 5,000 cells per well in culture medium and grown overnight in 5% CO2 at 37° C. On the day of assay growth media were removed and cells were loaded with BD calcium assay dye (BD Biosciences) for 35 min at 37° C. under 5% CO2 and then for 25 min at room temperature. Utilizing the FDSS, cells were exposed to representative compounds of Formula (I) at varying concentrations and intracellular calcium was measured for 5 min prior to the addition of 50 mM KCl for an additional 3 min of measurement.
Maximal fluorescence intensity (FI) achieved upon addition of 50 mM KCl was exported from the FDSS software and further analyzed using GraphPad Prism 4 (Graph Pad Software Inc., CA, U.S.A.). Data were normalized to the maximum average counts from quadruplicate wells for each condition in the presence of 50 mM KCl and to the minimum average counts in the presence of buffer. Theoretical curves were generated using nonlinear regression curve-fitting analysis of either sigmoidal concentration-response or sigmoidal concentration-response (variable slope), and the IC50 values with the best-fit dose curve determined by GraphPad Prism were reported.

[3] = 0.1 μM, high frequency stimulation (15th pulse of 5 Hz train)
[4] = 0.1 μM, low frequency stimulation (1st pulse of train)

| Structure (SMILES) | IC50 [2] | further results |
| --- | --- | --- |
| COc1ccccc1-n1nc(C2CC(C)(C)SC(C)(C)C2)cc1-c1ccc(Cl)cc1 [Compound 58, 5-(4-Chloro-phenyl)-1-(2-methoxy-phenyl)-3-(2,2,6,6-tetramethyl-tetrahydro-thiopyran-4-yl)-1H-pyrazole] | – | QPatch % Inhibition, High Freq [1, 3]: 26%; QPatch % Inhibition, Low Freq [1, 4]: 19% |
| COc1ccccc1-n1nc(C2CC(C)(C)OC(C)(C)C2)cc1-c1ccccc1NC(C)=O [Compound 36, N-{2-[1-(2-Methoxyphenyl)-3-(2,2,6,6-tetramethyltetrahydro-2H-pyran-4-yl)-1H-pyrazol-5-yl]-phenyl}-acetamide] | 143 nM | – |
| CCc1ccccc1-n1nc(C2CCOCC2)cc1-c1ccc(Cl)cc1 [Compound 77, 5-(4-Chlorophenyl)-1-(2-ethylphenyl)-3-(tetrahydro-2H-pyran-4-yl)-1H-pyrazole] | 150 nM | – |
| CC(C)(C)Oc1ccccc1-n1nc(C2CC(C)(C)OC(C)(C)C2)cc1-c1ccc(Cl)cc1 [Compound 48, 1-(2-tert-Butoxyphenyl)-5-(4-chlorophenyl)-3-(2,2,6,6-tetramethyltetrahydro-2H-pyran-4-yl)-1H-pyrazole] | 110 nM | – |
| CC1(C)CC(c2cc(-c3ccc(Cl)cc3)n(-c3ccncc3)n2)CC(C)(C)O1 [Compound 51, 4-[5-(4-Chlorophenyl)-3-(2,2,6,6-tetramethyltetrahydro-2H-pyran-4-yl)-1H-pyrazol-1-yl]-pyridine] | – | QPatch % Inhibition, High Freq ([1]; 0.1 µM): 22%; QPatch % Inhibition, Low Freq ([1]; 0.1 µM): −17% |
| COc1ccccc1-n1nc(C2CC(C)(C)OC(C)(C)C2)cc1-c1ccc(OCCn2ccnc2)cc1 [Compound 81, 5-{4-[2-(1H-Imidazol-1-yl)ethoxy]phenyl}-1-(2-methoxyphenyl)-3-(2,2,6,6-tetramethyltetrahydro-2H-pyran-4-yl)-1H-pyrazole] | 400 nM | – |
| CC1(C)CC(c2cc(-c3ccc(Cl)cc3)n(-c3ccccn3)n2)CC(C)(C)O1 [Compound 50, 2-[5-(4-Chloro-phenyl)-3-(2,2,6,6-tetramethyl-tetrahydro-pyran-4-yl)-pyrazol-1-yl]-pyridine] | – | QPatch % Inhibition, High Freq ([1]; 0.1 µM): 1%; QPatch % Inhibition, Low Freq ([1]; 0.1 µM): −37% |
| COc1ccccc1-n1nc(C2CC(C)(C)OC(C)(C)C2)cc1-c1ccncc1 [Compound 32, 4-[1-(2-Methoxyphenyl)-3-(2,2,6,6-tetramethyltetrahydro-2H-pyran-4-yl)-1H-pyrazol-5-yl]pyridine] | 140 nM | – |
| Clc1ccc(-c2cc(C3CCOCC3)nn2-c2c(Cl)cccc2Cl)cc1 [Compound 80, 5-(4-Chlorophenyl)-1-(2,6-dichlorophenyl)-3-(tetrahydro-2H-pyran-4-yl)-1H-pyrazole] | 200 nM | – |
| CCN(CC)C(=O)c1ccc(-c2cc(C3CC(C)(C)OC(C)(C)C3)nn2-c2ccccc2OC)cc1 [Compound 40, N,N-Diethyl-4-[1-(2-methoxyphenyl)-3-(2,2,6,6-tetramethyltetrahydro-2H-pyran-4-yl)-1H-pyrazol-5-yl]-benzamide] | 270 nM | – |
| Clc1ccc(-c2cc(C3CCOCC3)nn2-c2ccccc2Cl)cc1 [Compound 74, 1-(2-Chlorophenyl)-5-(4-chlorophenyl)-3-(tetrahydro-2H-pyran-4-yl)-1H-pyrazole] | 53 nM | – |
| COc1ccccc1-n1nc([C@@H]2CCO[C@@H](C(C)C)C2)cc1-c1ccc(Cl)cc1 (relative stereo) [Compound 69, 5-(4-Chlorophenyl)-1-(2-methoxyphenyl)-3-[(trans)-2-(1-methylethyl)tetrahydro-2H-pyran-4-yl]-1H-pyrazole] | 20 nM | – |
| COc1ccccc1-n1nc(C2CC(C)(C)S(=O)(=O)C(C)(C)C2)cc1-c1ccc(Cl)cc1 [Compound 59, 5-(4-Chlorophenyl)-1-(2-methoxyphenyl)-3-(2,2,6,6-tetramethyl-1,1-dioxidotetrahydro-2H-thiopyran-4-yl)-1H-pyrazole] | – | QPatch % Inhibition, High Freq [1, 3]: 54%; QPatch % Inhibition, Low Freq [1, 4]: 54% |
| COc1cncc(-c2cc(C3CC(C)(C)OC(C)(C)C3)nn2-c2ccccc2OC)c1 [Compound 34, 3-Methoxy-5-[1-(2-methoxyphenyl)-3-(2,2,6,6-tetramethyltetrahydro-2H-pyran-4-yl)-1H-pyrazol-5-yl]-pyridine] | 120 nM | – |
| FC(F)(F)Oc1ccccc1-n1nc(C2CCOCC2)cc1-c1ccc(Cl)cc1 [Compound 79, 5-(4-Chlorophenyl)-3-(tetrahydro-2H-pyran-4-yl)-1-[2-(trifluoromethoxy)phenyl]-1H-pyrazole] | 180 nM | – |
| COc1ncc(-c2cc(C3CC(C)(C)OC(C)(C)C3)nn2-c2ccccc2OC)cn1 [Compound 39, 2-Methoxy-5-[1-(2-methoxyphenyl)-3-(2,2,6,6-tetramethyltetrahydro-2H-pyran-4-yl)-1H-pyrazol-5-yl]pyrimidine] | 72 nM | – |
| COc1ccccc1-n1nc(C2CC(C)(C)OC(C)(C)C2)cc1-c1ccc(OCCN(C)C)cc1 [Compound 82, 2-{4-[1-(2-Methoxyphenyl)-3-(2,2,6,6-tetramethyltetrahydro-2H-pyran-4-yl)-1H-pyrazol-5-yl]phenoxy}-N,N-dimethylethanamine] | 770 nM | – |
| COc1ccccc1-n1nc(C2CC(C)(C)OC(C)(C)C2)cc1-c1ccnc(Cl)c1 [Compound 25, 2-Chloro-4-[1-(2-methoxyphenyl)-3-(2,2,6,6-tetramethyltetrahydro-2H-pyran-4-yl)-1H-pyrazol-5-yl]pyridine] | – | QPatch % Inhibition, High Freq [1, 3]: 29%; QPatch % Inhibition, Low Freq [1, 4]: 14% |
| COc1ccccc1-n1nc(C2CC(C)(C)OC(C)(C)C2)cc1-c1ccc([S+](C)[O-])cc1 (stereo not shown) [Compound 47, 5-(4-Methanesulfinyl-phenyl)-1-(2-methoxy-phenyl)-3-(2,2,6,6-tetramethyl-tetrahydro-pyran-4-yl)-1H-pyrazole] | – | QPatch % Inhibition, High Freq [1, 3]: 28%; QPatch % Inhibition, Low Freq [1, 4]: 25% |
